Patent US20210255193A1, “LYSINE REACTIVE PROBES AND USES THEREOF” (The Scripps Research Institute, priority 2017, published 2021)

Experiments:
Test in all cases: competitive isoTOP-ABPP
Type in all cases: binding
[1] = biological target: T1, ENOPH1 Enolase-phosphatase E1 (Homo sapiens, UniProt Q9UHY7); conditions: 50 uM, 231 sol, in vitro; for R value (DMSO/fragment) for probe 1 labeling: Q9UHY7_K111
T1 construct: endogenous in cells; host or cells: MDA-MB-231 (soluble fraction of lysate)
In short: (§1)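 Probe: STP-alkyne, 0.1 mM, 1 h RT, after fragment pretreatment of lysate (esters 50 μM; guanidinylators 100 μM). Tags: light = compound, heavy = DMSO, via CuAAC. Replicates averaged if SD <60% of mean; otherwise lowest ratio used when any R <4.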

[2] = biological target: T2, POLR2L DNA-directed RNA polymerases I, II, and III subunit (Homo sapiens, UniProt P62875); conditions: 50 uM, 231 sol, in vitro; for R value (DMSO/fragment) for probe 1 labeling: P62875_K67
T2 construct: isoTOP-ABPP experiments performed in cell lysates (in vitro); endogenous in cells; host or cells: soluble proteome of human cancer cell lines (MDA-MB-231, Ramos, Jurkat)
In short: as §1

[3] = biological target: T3, GLOD4 Glyoxalase domain-containing protein 4 (Homo sapiens, UniProt Q9HC38); conditions: 50 uM, 231 sol, in vitro; for R value (DMSO/fragment) for probe 1 labeling: Q9HC38_K305
T3 construct: endogenous in cells; host or cells: MDA-MB-231 (soluble fraction of lysate)
T3 sequence (Q9HC38 1-313): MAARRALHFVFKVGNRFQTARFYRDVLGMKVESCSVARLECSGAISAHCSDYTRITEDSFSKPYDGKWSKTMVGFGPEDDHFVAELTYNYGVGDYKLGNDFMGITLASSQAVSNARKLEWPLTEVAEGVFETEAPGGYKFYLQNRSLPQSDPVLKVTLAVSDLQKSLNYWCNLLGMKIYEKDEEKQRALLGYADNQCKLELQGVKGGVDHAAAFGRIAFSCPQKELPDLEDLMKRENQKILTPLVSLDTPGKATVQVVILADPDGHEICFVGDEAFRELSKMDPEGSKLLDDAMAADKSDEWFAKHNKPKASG
In short: as §1

FAH Fumarylacetoacetase = biological target: T4, FAH Fumarylacetoacetase (Homo sapiens, UniProt P16930); conditions: 50 uM, 231 sol, in vitro; for R value (DMSO/fragment) for probe 1 labeling: P16930_K241
T4 construct: isoTOP-ABPP experiments performed in cell lysates (in vitro); endogenous in cells; host or cells: soluble proteome of human cancer cell lines (MDA-MB-231; Ramos and Jurkat also prepared)
T4 sequence (P16930 1-419): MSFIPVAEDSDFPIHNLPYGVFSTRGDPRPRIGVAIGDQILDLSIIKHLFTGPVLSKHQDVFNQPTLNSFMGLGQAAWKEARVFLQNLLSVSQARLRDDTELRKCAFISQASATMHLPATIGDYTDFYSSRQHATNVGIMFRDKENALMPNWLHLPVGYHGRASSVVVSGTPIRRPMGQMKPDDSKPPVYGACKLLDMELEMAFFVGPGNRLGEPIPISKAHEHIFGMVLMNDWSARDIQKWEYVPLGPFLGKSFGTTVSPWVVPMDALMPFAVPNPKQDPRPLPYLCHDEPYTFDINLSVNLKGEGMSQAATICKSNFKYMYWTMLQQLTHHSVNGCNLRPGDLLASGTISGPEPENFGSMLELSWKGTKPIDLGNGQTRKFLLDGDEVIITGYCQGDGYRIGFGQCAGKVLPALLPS
In short: as §1

[4] = biological target: T5, TRMT10C Mitochondrial ribonuclease P protein 1 (Homo sapiens, UniProt Q7L0Y3); conditions: 50 uM, 231 sol, in vitro
T5 construct: isoTOP-ABPP experiments performed in cell lysates (in vitro); endogenous in cells; host or cells: soluble proteome of human cancer cell lines (MDA-MB-231; Ramos and Jurkat also prepared)
T5 sequence (Q7L0Y3 40-403): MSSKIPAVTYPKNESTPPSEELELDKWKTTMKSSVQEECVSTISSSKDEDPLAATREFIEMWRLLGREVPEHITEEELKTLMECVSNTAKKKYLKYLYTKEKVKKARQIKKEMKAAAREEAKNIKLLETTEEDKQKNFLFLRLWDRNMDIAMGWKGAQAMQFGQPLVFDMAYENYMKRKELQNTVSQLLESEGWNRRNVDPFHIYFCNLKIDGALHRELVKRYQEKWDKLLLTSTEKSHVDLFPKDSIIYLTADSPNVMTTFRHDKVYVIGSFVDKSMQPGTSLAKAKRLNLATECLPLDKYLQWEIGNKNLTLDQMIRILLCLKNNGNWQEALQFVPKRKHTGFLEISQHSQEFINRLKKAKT
In short: as §1

T1 sequence (Q9UHY7 whole entry, the tested form may be a part): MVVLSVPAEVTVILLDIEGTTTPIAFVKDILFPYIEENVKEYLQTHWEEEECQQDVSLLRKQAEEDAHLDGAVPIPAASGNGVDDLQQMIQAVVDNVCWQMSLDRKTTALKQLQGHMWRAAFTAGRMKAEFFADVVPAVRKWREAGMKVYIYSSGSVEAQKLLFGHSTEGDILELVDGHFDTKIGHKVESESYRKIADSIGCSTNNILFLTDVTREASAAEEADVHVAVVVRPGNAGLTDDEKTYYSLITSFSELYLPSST

`O=C(CCc1cn(-c2ccccc2)nc1-c1ccccc1)Oc1c(F)c(F)c(F)c(F)c1F` [fragment 19, Pentafluorophenyl 3-(1,3-diphenyl-1H-pyrazol-4-yl)propanoate] was tested, and the “R value (DMSO/fragment) for probe 1 labeling” value (“R value (DMSO/fragment)” below) [1] was 1.0, the “R value (DMSO/fragment)” value [2] was 1.0 and the “R value (DMSO/fragment)” value [3] was 0.9. For the same compound, the “R value (DMSO/fragment)” value (FAH Fumarylacetoacetase) was 2.5.
`O=C(Oc1c(F)c(F)c(F)c(F)c1F)C(c1ccccc1)c1ccccc1` [fragment 20, Pentafluorophenyl 2,2-diphenylacetate] was tested, and the “R value (DMSO/fragment)” value [1] was 1.0, the “R value (DMSO/fragment)” value [2] was 0.9 and the “R value (DMSO/fragment)” value [3] was 0.8. The “R value (DMSO/fragment)” value (FAH Fumarylacetoacetase) was 1.0 and the “R value (DMSO/fragment)” value ([4]; Q7L0Y3_K325) was 1.1.
In the case of `O=C(CCc1coc2cc(F)ccc2c1=O)Oc1c(F)c(F)c(F)c(F)c1F` [fragment 26, Pentafluorophenyl 3-(7-fluoro-4-oxo-4H-chromen-3-yl)propanoate], the “isoTOP-ABPP reactivity ratio at lysine Q9UHY7_K111” value [1] is reported as 1.3, the “isoTOP-ABPP reactivity ratio at lysine P62875_K67” value [2] is reported as 1.1 and the “isoTOP-ABPP reactivity ratio at lysine Q9HC38_K305” value [3] is reported as 0.8. For the same compound, the “isoTOP-ABPP reactivity ratio at lysine P16930_K241” value (FAH Fumarylacetoacetase) was 5.0.
With `O=C(CN1C(=O)c2ccccc2C1=O)Oc1c(F)c(F)c(F)c(F)c1F` [fragment 27, Pentafluorophenyl 2-(1,3-dioxoisoindolin-2-yl)acetate] the “isoTOP-ABPP reactivity ratio at lysine Q9UHY7_K111” value [1] was 1.5, the “isoTOP-ABPP reactivity ratio at lysine P62875_K67” value [2] was 1.0 and the “isoTOP-ABPP reactivity ratio at lysine Q9HC38_K305” value [3] was 0.5. The “isoTOP-ABPP reactivity ratio at lysine P16930_K241” value (FAH Fumarylacetoacetase) was 1.8.
With `CCn1cc(C(=O)Oc2c(F)c(F)c(F)c(F)c2F)c(=O)c2ccc(C)nc21` [fragment 28, Pentafluorophenyl 1-ethyl-7-methyl-4-oxo-1,4-dihydro-1,8-naphthyridine-3-carboxylate] the “isoTOP-ABPP reactivity ratio at lysine Q9UHY7_K111” value [1] was 1.0, the “isoTOP-ABPP reactivity ratio at lysine P62875_K67” value [2] was 1.0 and the “isoTOP-ABPP reactivity ratio at lysine Q9HC38_K305” value [3] was 1.0. The “isoTOP-ABPP reactivity ratio at lysine P16930_K241” value (FAH Fumarylacetoacetase) was 2.5.
In the case of `O=C(CCc1cn(-c2ccccc2)nc1-c1ccccc1)Oc1ccc([N+](=O)[O-])cc1[N+](=O)[O-]` [fragment 29, 2,4-Dinitrophenyl 3-(1,3-diphenyl-1H-pyrazol-4-yl)propanoate], the “isoTOP-ABPP reactivity ratio at lysine Q9UHY7_K111” value [1] is reported as 0.8, the “isoTOP-ABPP reactivity ratio at lysine Q9HC38_K305” value [3] is reported as 0.9 and the “isoTOP-ABPP reactivity ratio at lysine P16930_K241” value (FAH Fumarylacetoacetase) is reported as 1.7. The “isoTOP-ABPP reactivity ratio at lysine Q7L0Y3_K325” value [4] was 0.7.
In the case of `O=C(Oc1ccc([N+](=O)[O-])cc1[N+](=O)[O-])c1cc(C(F)(F)F)cc(C(F)(F)F)c1` [fragment 31, 2,4-Dinitrophenyl 3,5-bis(trifluoromethyl)benzoate], the “isoTOP-ABPP reactivity ratio at lysine P62875_K67” value [2] is reported as 0.9, the “isoTOP-ABPP reactivity ratio at lysine Q9HC38_K305” value [3] is reported as 0.5 and the “isoTOP-ABPP reactivity ratio at lysine P16930_K241” value (FAH Fumarylacetoacetase) is reported as 20.0. The “isoTOP-ABPP reactivity ratio at lysine Q7L0Y3_K325” value [4] was 1.1.
With `Cn1cc(CC(=O)Oc2ccc([N+](=O)[O-])cc2[N+](=O)[O-])c2ccccc21` [fragment 32, 2,4-Dinitrophenyl 2-(1-methyl-1H-indol-3-yl)acetate] the “isoTOP-ABPP reactivity ratio at lysine Q9UHY7_K111” value [1] was 1.3, the “isoTOP-ABPP reactivity ratio at lysine P16930_K241” value (FAH Fumarylacetoacetase) was 2.2 and the “isoTOP-ABPP reactivity ratio at lysine Q7L0Y3_K325” value [4] was 1.0.
